In patent publication US9421211B2, “N,N′-diarylurea compounds and N,N′-diarylthiourea compounds as inhibitors of translation initiation” (President and Fellows of Harvard College, priority 2009, dated 2016):
Read-outs that look alike come from different tables or passages of the source.

What was measured:
[1] = tested on: KLN mouse squamous cell carcinoma cells; experiment: Cell proliferation SRB assay, KLN; assay type: cell-based
Method: (§1) Reduced availability of the ternary complex causes inhibition of translation initiation and thereby of cell proliferation. […] The effects of N,N′-diarylureas on the proliferation KLN mouse squamous cell carcinoma, CRL-2351 human breast, CRL-2813 human melanoma, A549 human lung and PC-3 human prostate cancer cell lines were tested.
(§2) Cell Growth Assay: Cell Growth was Measured by the SRB Assay.

[2] = tested on: CRL-2813 human melanoma cells; experiment: Cell proliferation SRB assay, CRL-2813; assay type: cell-based
Method: as §1, with “tested. […]” for “tested.”
as §2

[3] = tested on: CRL-2351 human breast cancer cells; experiment: Cell proliferation SRB assay, CRL-2351; assay type: cell-based; details: Homo sapiens
Method: as §1, §2

[4] = tested on: A549 human lung cancer cells; experiment: Cell proliferation SRB assay, A549; assay type: cell-based; details: read-out: IC50 (μM), concentration that inhibits cell proliferation by 50%
Method: as §1, §2

[5] = tested on: eIF2.GTP.Met-tRNAi ternary complex; experiment: ATF-4 assay (firefly/renilla luciferase ratio) in CRL-2351 cell line; assay type: cell-based, human; details: for maximal fold induction / EC (activity threshold of 5): Homo sapiens; for maximal fold induction: read-out: ATF-4 Amax: maximal activity, ratio of firefly over renilla luciferase expression; for EC (activity threshold of 5): read-out: ATF-4 C[5] (μM): concentration corresponding to an activity threshold of 5; for Cmax: read-out: ATF-4 Cmax (μM): concentration corresponding to the maximal activity
Text: For example, reducing amount of the ternary complex increases translation of ATF-4, which results in elevated expression of CHOP mRNA and protein. Therefore, expression of endogenous CHOP mRNA and CHOP protein in KLN-tTA/pBISA-DL^(ATF-4) cells were utilized as secondary assays to validate N,N′-diarylurea compounds as modifiers of the eIF2.GTP.Met-tRNAi ternary complex. […] To rule out the possibility that the activity of N,N′-diarylurea compounds was confined to a single cell type, the effects of these compounds on the ternary complex assay and the expression of CHOP mRNA was assayed in CRL-2351, PC-3, CRL-2813 human breast, prostate, and melanoma cancer cell lines respectively. For the reporter gene assay, the three human cell lines were co-transfected with tTA expression vector and the pBISA-DL^(ATF-4) dual luciferase expression vector shown in FIG. 6. […] The expression of CHOP mRNA was assayed by real time PCR in the same cell lines treated with 5 or 20 μM of each compound.
Stable and transient transfection: Cells were seeded at the density of 10^5 in 60-mm (stable transfection) or 10^4 cells per well of 96-well plate (transient transfection) plates and transfected one day later using the Qiagen Transfectamine transfection kit. For selection of stable cell lines, transfected cells were transferred to 100-mm plates and selected with appropriate antibiotics.
Dual luciferase assay: Cells or minced tumors expressing firefly and renilla luciferases were lysed and the extracts assayed with a glow type dual luciferase assay kit, per manufacturer's instruction (Promega Inc., Madison, Wis.).

[6] = tested on: PC-3 human prostate cancer cells; experiment: Cell proliferation SRB assay, PC-3; assay type: cell-based; details: read-out: IC50 (μM), concentration that inhibits cell proliferation by 50%
Method: as §1
To determine if N,N′-diarylureas inhibit cell proliferation by reducing the availability of the ternary complex, the effect of N,N′-diarylureas on proliferation of previously described transgenic PC-3 human prostate cancer cell lines expressing either the non-phosphorylatable eIF2α-S51A mutant or the eIF2α-WT was studied. […] Reducing the expression of HRI, the eIF2α kinase that mediates N,N′-diarylurea induced phosphorylation of eIF2α similarly abrogates the effect of these agents on cell proliferation (FIGS. 15C and 15D).
as §2

[7] = In vivo toxicity, seven day administration to mice; details: female nude mice, 100 or 200 mg/kg daily for seven days, observed 15 days
Method: Five female nude mice each were treated with 200 mg/kg, 100 mg/kg #1781 in 15 μl DMSO or 15 μl DMSO daily for seven days. Mice were observed daily for signs of toxicity and weighed every other day for total of 15 days and then necropsy was performed. The average body of each group is plotted against the time.
To study toxicity effects, mice were treated with various doses of compound #1781 or vehicle.

[8] = KLN, read-out: IC50 (μM), concentration that inhibits cell proliferation by 50%
[9] = CRL2813, CRL-2813, read-out: IC50 (μM), concentration that inhibits cell proliferation by 50%
[10] = CRL-2351, read-out: IC50 (μM), concentration that inhibits cell proliferation by 50%
[11] = KLN cells, read-out: IC50 (μM) by SRB assay, KLN
[12] = CRL2813, 2813 cells, read-out: IC50 (μM) by SRB assay, 2813
[13] = 2351 cells, read-out: IC50 (μM) by SRB assay, 2351

SMILES	IC50 [1, 8] [µM]	IC50 [2, 9] [µM]	IC50 [3, 10] [µM]	IC50 [4] [µM]	maximal fold induction [5]	EC (activity threshold of 5) [5] [µM]	Cmax [5] [µM]	IC50 [1, 11] [µM]	IC50 [2, 12] [µM]	IC50 [3, 13] [µM]	IC50 [6] [µM]	In vivo toxicity [7]
O=C(Nc1ccc(Cl)c(Cl)c1)Nc1cc([N+](=O)[O-])ccc1Cl [Compound 1527]	> 20	20	9.5	> 20	–	–	–	–	–	–	–	–
Cc1ccc(NC(=O)Nc2ccc(Cl)c(C(F)(F)F)c2)cc1OCCN1CCOCC1 [Compound 16, 3-[4-chloro-3-(trifluoromethyl)phenyl]-1-{4-methyl-3-[2-(morpholin-4-yl)ethoxy]phenyl}urea]	–	–	–	–	7	7	10	> 20	0.9	2.7	–	–
Cc1ccc(NC(=O)Nc2ccc(Cl)c(C(F)(F)F)c2)cc1OCCN(C)C [Compound 12, 3-[4-chloro-3-(trifluoromethyl)phenyl]-1-{3-[2-(dimethylamino)ethoxy]-4-methylphenyl}urea]	–	–	–	–	7	7	10	12.3	2.8	2.5	–	–
O=C(Nc1cc(C(F)(F)F)cc(C(F)(F)F)c1)Nc1cc(C(F)(F)F)cc(C(F)(F)F)c1 [Compound 3, 1,3-bis[3,5-bis(trifluoromethyl)phenyl]urea]	–	–	–	–	11	1.5	2.5	3.9	0.1	0.6	–	–
O=C(Nc1ccc(Cl)cc1)Nc1ccc2nonc2c1 [KM094748]	8.5	0.3	0.1	1.3	–	–	–	–	–	–	1.4	–
Cc1ccc(NC(=O)Nc2ccc(Cl)c(Cl)c2)cc1OCCN(C)C [Compound 11, 3-(3,4-dichlorophenyl)-1-{3-[2-(dimethylamino)ethoxy]-4-methylphenyl}urea]	–	–	–	–	7.5	8	20	13.5	5.3	5.8	–	–
Cc1ccc(NC(=O)Nc2cc(C(F)(F)F)cc(C(F)(F)F)c2)cc1OCCN1CCNCC1 [Compound 25, 4-{2-[5-({[3,5-bis(trifluoromethyl)phenyl]carbamoyl}amino)-2-methylphenoxy]ethyl}piperazine-1,4-diium dichloride]	–	–	–	–	10	6	10	–	3.1	5.2	–	–
O=C(Nc1ccc(Cl)c(Cl)c1)Nc1ccc2nnsc2c1 [Compound 1781]	17.1	0.5	3	1.2	–	–	–	–	–	–	1.1	no apparent in vivo toxicity
Cc1ccc(NC(=O)Nc2ccc(Cl)c(Cl)c2)cc1OCCN1CCNCC1 [Compound 23, 4-[2-(5-{[(3,4-dichlorophenyl)carbamoyl]amino}-2-methylphenoxy)ethyl]piperazine-1,4-diium dichloride]	–	–	–	–	7.5	7	10	> 20	5.1	4.5	–	–
O=C(Nc1ccc(Cl)c(C(F)(F)F)c1)Nc1ncccc1O [Compound 27]	–	–	–	–	6.5	10	40	12.5	0.8	1.2	–	–
O=C(Nc1ccc(Cl)c(C(F)(F)F)c1)Nc1ccc(Cl)c(C(F)(F)F)c1 [Compound 2, 1,3-bis[4-chloro-3-(trifluoromethyl)phenyl]urea]	–	–	–	–	11	1.5	2.5	–	1.7	2.8	–	–
COc1cc(NC(=O)Nc2ccc(Cl)c(C(F)(F)F)c2)ccc1C [Compound 8]	–	–	–	–	8	3	10	17.2	3	2.5	–	–
O=C(Nc1ccc(Cl)c(Cl)c1)Nc1ccc(Cl)c(Cl)c1 [Compound 1, 1,3-bis(3,4-dichlorophenyl)urea]	–	–	–	–	11	2	5	> 20	0.8	2.6	–	–
O=C(Nc1ccc(Cl)c(Cl)c1)Nc1ncccc1O [Compound 26]	–	–	–	–	12	13	40	> 20	1.8	2	–	–
Cc1ccc(NC(=O)Nc2cc(C(F)(F)F)cc(C(F)(F)F)c2)cc1O [Compound 6, 3-[3,5-bis(trifluoromethyl)phenyl]-1-(3-hydroxy-4-methylphenyl)urea]	–	–	–	–	13	3	5	13.5	1	3.2	–	–
Cc1ccc(NC(=O)Nc2ccc(Cl)c(Cl)c2)cc1O [Compound 4, 3-(3,4-dichlorophenyl)-1-(3-hydroxy-4-methylphenyl)urea]	–	–	–	–	13	11	20	> 20	1.8	9	–	–
Cc1ccc(NC(=O)Nc2cc(C(F)(F)F)cc(C(F)(F)F)c2)cc1OCCN1CCOCC1 [Compound 17, 3-[3,5-bis(trifluoromethyl)phenyl]-1-{4-methyl-3-[2-(morpholin-4-yl)ethoxy]phenyl}urea]	–	–	–	–	9	3	10	18.6	0.8	2.3	–	–
COc1cc(NC(=O)Nc2cc(C(F)(F)F)cc(C(F)(F)F)c2)ccc1C [Compound 9]	–	–	–	–	12	< 2.5	20	20	0.7	2.2	–	–
Cc1ccc(NC(=O)Nc2cc(C(F)(F)F)cc(C(F)(F)F)c2)cc1OCCN(C)C [Compound 13, 3-[3,5-bis(trifluoromethyl)phenyl]-1-{3-[2-(dimethylamino)ethoxy]-4-methylphenyl}urea]	–	–	–	–	12.5	5	10	12.4	–	2.9	–	–
Cc1ccc(NC(=O)Nc2ccc(Cl)c(C(F)(F)F)c2)cc1O [Compound 5, 3-[4-chloro-3-(trifluoromethyl)phenyl]-1-(3-hydroxy-4-methylphenyl)urea]	–	–	–	–	11	6	10	20	1.6	9.3	–	–
COc1cc(NC(=O)Nc2ccc(Cl)c(Cl)c2)ccc1C [Compound 7]	–	–	–	–	–	–	–	> 20	> 20	11	–	–
O=C(Nc1ccc(Cl)c(C(F)(F)F)c1)Nc1ccc2nnsc2c1 [Compound 1780]	14.8	0.1	1.3	0.8	–	–	–	–	–	–	0.9	–
